# Measurements taken from PMC11899342, “Novel Triazeneindole Antibiotics: Synthesis and Hit-to-Lead Optimization” (International Journal of Molecular Sciences, 2025).
# Tested on: Wistar outbred rats
# Experiment: Single-dose acute toxicity, intragastric administration
# Format: in vivo, rat
# Conditions: for Changes Appearance / Changes Behavior / Changes Body Weight / Changes Feed Intake / Changes Organ Histology / Changes Organ Weight / Changes Water Intake: 14-day follow-up; for Relative organ weight, Adrenal glands / Relative organ weight, Brain / Relative organ weight, Heart / Relative organ weight, Kidneys / Relative organ weight, Liver / Relative organ weight, Lungs with trachea / Relative organ weight, Ovaries / Relative organ weight, Spleen / Relative organ weight, Thymus / Relative organ weight, Testes: after 15 days, M±SEM; for number of animals that died: all dose groups; for Deaths (Dead/ Total): Wistar, rat, in vivo
# Method: Before administration, the BX-SI043 substance was resuspended in a 1% starch solution. The animals in the treatment groups received suspensions intragastrically in doses of 2000 mg/kg (administered in two equal doses, with a 30–40 min interval), 1000 mg/kg, 600 mg/kg, and 300 mg/kg (administered in single doses).
# The animals were monitored daily for any abnormalities. On the 2nd, 7th, and 13th days after administration, the animals were clinically evaluated and weighed, and the consumption of feed and water were measured. On the 14th day, the behavior of the animals was evaluated. On the 15th day, the animals were euthanized, and the lungs (with trachea), heart, thymus, liver, kidneys, spleen, stomach, small intestine, colon, brain, adrenal glands, and testes/ovaries were fixed in 10% neutral formalin for histological evaluation.
# [1] = female rats, 300 mg/kg intragastric
# [2] = female rats, 600 mg/kg intragastric
# [3] = female rats, 1000 mg/kg intragastric
# [4] = female rats, 2000 mg/kg intragastric
# [5] = male rats, 300 mg/kg intragastric
# [6] = male rats, 600 mg/kg intragastric
# [7] = male rats, 1000 mg/kg intragastric
# [8] = male rats, 2000 mg/kg intragastric
structure (smiles),measurement,setting,value
"CCOC(=O)c1[nH]c2cc(F)ccc2c1/N=N/N1CCCC1 [BX-SI043, Ethyl (E)-6-fluoro-3-(pyrrolidin-1-yldiazenyl)-1H-indole-2-carboxylate]",Changes Appearance,[1],no
same,Changes Behavior,[1],no
same,Changes Body Weight,[1],no
same,Changes Feed Intake,[1],no
same,Changes Organ Histology,[1],no
same,Changes Organ Weight,[1],no
same,Changes Water Intake,[1],no
same,"Relative organ weight, Adrenal glands",[1],"0,03±0,003 % of body weight"
same,"Relative organ weight, Brain",[1],"0,84±0,032 % of body weight"
same,"Relative organ weight, Heart",[1],"0,46±0,012 % of body weight"
same,"Relative organ weight, Kidneys",[1],"0,87±0,065 % of body weight"
same,"Relative organ weight, Liver",[1],"4,79±0,090 % of body weight"
same,"Relative organ weight, Lungs with trachea",[1],"0,77±0,037 % of body weight"
same,"Relative organ weight, Ovaries",[1],"0,067±0,0043 % of body weight"
same,"Relative organ weight, Spleen",[1],"0,37±0,033 % of body weight"
same,"Relative organ weight, Thymus",[1],"0,280±0,016 % of body weight"
same,"Body weight, M±SEM","female rats, 300 mg/kg intragastric, experiment day 1","195,3±3,67 g"
same,"Body weight, M±SEM","female rats, 300 mg/kg intragastric, experiment day 2","194,8±3,92 g"
same,"Body weight, M±SEM","female rats, 300 mg/kg intragastric, experiment day 7","220,0±7,86 g"
same,"Body weight, M±SEM","female rats, 300 mg/kg intragastric, experiment day 15","234,7±9,33 g"
same,Changes Appearance,[2],no
same,Changes Behavior,[2],no
same,Changes Body Weight,[2],no
same,Changes Feed Intake,[2],no
same,Changes Organ Histology,[2],yes
same,Changes Organ Weight,[2],no
same,Changes Water Intake,[2],no
same,"Relative organ weight, Adrenal glands",[2],"0,04±0,002 % of body weight"
same,"Relative organ weight, Brain",[2],"0,86±0,031 % of body weight"
same,"Relative organ weight, Heart",[2],"0,48±0,007 % of body weight"
same,"Relative organ weight, Kidneys",[2],"0,78±0,021 % of body weight"
same,"Relative organ weight, Liver",[2],"4,64±0,067 % of body weight"
same,"Relative organ weight, Lungs with trachea",[2],"0,82±0,044 % of body weight"
same,"Relative organ weight, Ovaries",[2],"0,066±0,0032 % of body weight"
same,"Relative organ weight, Spleen",[2],"0,33±0,045 % of body weight"
same,"Relative organ weight, Thymus",[2],"0,310±0,013 % of body weight"
same,"Body weight, M±SEM","female rats, 600 mg/kg intragastric, experiment day 1","195,2±4,56 g"
same,"Body weight, M±SEM","female rats, 600 mg/kg intragastric, experiment day 2","207,7±4,08 g"
same,"Body weight, M±SEM","female rats, 600 mg/kg intragastric, experiment day 7","222,5±5,43 g"
same,"Body weight, M±SEM","female rats, 600 mg/kg intragastric, experiment day 15","221,2±5,98 g"
same,Changes Appearance,[3],no
same,Changes Behavior,[3],yes
same,Changes Body Weight,[3],no
same,Changes Feed Intake,[3],yes
same,Changes Organ Histology,[3],yes
same,Changes Organ Weight,[3],no
same,Changes Water Intake,[3],no
same,"Relative organ weight, Adrenal glands",[3],"0,04±0,004 % of body weight"
same,"Relative organ weight, Brain",[3],"0,97±0,022 % of body weight"
same,"Relative organ weight, Heart",[3],"0,52±0,02 % of body weight"
same,"Relative organ weight, Kidneys",[3],"0,82±0,027 % of body weight"
same,"Relative organ weight, Liver",[3],"4,67±0,23 % of body weight"
same,"Relative organ weight, Lungs with trachea",[3],"0,79±0,057 % of body weight"
same,"Relative organ weight, Ovaries",[3],"0,085±0,0075 % of body weight"
same,"Relative organ weight, Spleen",[3],"0,42±0,05 % of body weight"
same,"Relative organ weight, Thymus",[3],"0,270±0,020 % of body weight"
same,"Body weight, M±SEM","female rats, 1000 mg/kg intragastric, experiment day 1","185,7±4,61 g"
same,"Body weight, M±SEM","female rats, 1000 mg/kg intragastric, experiment day 2","192,2±3,94 g"
same,"Body weight, M±SEM","female rats, 1000 mg/kg intragastric, experiment day 7","189,6±6,16 g"
same,"Body weight, M±SEM","female rats, 1000 mg/kg intragastric, experiment day 15","199,2±6,46 g"
same,Changes Appearance,[4],yes
same,Changes Behavior,[4],yes
same,Changes Body Weight,[4],no
same,Changes Feed Intake,[4],yes
same,Changes Organ Histology,[4],yes
same,Changes Organ Weight,[4],no
same,Changes Water Intake,[4],no
same,"Relative organ weight, Adrenal glands",[4],"0,04±0,004 % of body weight"
same,"Relative organ weight, Brain",[4],"0,93±0,027 % of body weight"
same,"Relative organ weight, Heart",[4],"0,41±0,079 % of body weight"
same,"Relative organ weight, Kidneys",[4],"0,89±0,033 % of body weight"
same,"Relative organ weight, Liver",[4],"4,73±0,167 % of body weight"
same,"Relative organ weight, Lungs with trachea",[4],"0,9±0,07 % of body weight"
same,"Relative organ weight, Ovaries",[4],"0,088±0,0092 % of body weight"
same,"Relative organ weight, Spleen",[4],"0,38±0,028 % of body weight"
same,"Relative organ weight, Thymus",[4],"0,310±0,032 % of body weight"
same,"Body weight, M±SEM","female rats, 2000 mg/kg intragastric, experiment day 1","196,5±2,06 g"
same,"Body weight, M±SEM","female rats, 2000 mg/kg intragastric, experiment day 2","205,8±1,64 g"
same,"Body weight, M±SEM","female rats, 2000 mg/kg intragastric, experiment day 7","183,5±11,99 g"
same,"Body weight, M±SEM","female rats, 2000 mg/kg intragastric, experiment day 15","210,8±5,91 g"
same,number of animals that died,female rats,2 animals
same,Deaths (Dead/ Total),"female, 300 mg/kg, 14 days",0/6
same,Deaths (Dead/ Total),"female, 600 mg/kg, 14 days",0/6
same,Deaths (Dead/ Total),"female, 1000 mg/kg, 14 days",1/6
same,Deaths (Dead/ Total),"female, 2000 mg/kg, 14 days",1/6
same,Changes Appearance,[5],no
same,Changes Behavior,[5],no
same,Changes Body Weight,[5],no
same,Changes Feed Intake,[5],no
same,Changes Organ Histology,[5],no
same,Changes Organ Weight,[5],no
same,Changes Water Intake,[5],no
same,"Relative organ weight, Adrenal glands",[5],"0,022±0,0012 % of body weight"
same,"Relative organ weight, Brain",[5],"0,77±0,020 % of body weight"
same,"Relative organ weight, Heart",[5],"0,45±0,012 % of body weight"
same,"Relative organ weight, Kidneys",[5],"0,98±0,046 % of body weight"
same,"Relative organ weight, Liver",[5],"4,53±0,26 % of body weight"
same,"Relative organ weight, Lungs with trachea",[5],"0,71±0,034 % of body weight"
same,"Relative organ weight, Spleen",[5],"0,34±0,017 % of body weight"
same,"Relative organ weight, Testes",[5],"1,17±0,039 % of body weight"
same,"Relative organ weight, Thymus",[5],"0,246±0,0276 % of body weight"
same,"Body weight, M±SEM","male rats, 300 mg/kg intragastric, experiment day 1","202,8±2,87 g"
same,"Body weight, M±SEM","male rats, 300 mg/kg intragastric, experiment day 2","205,7±1,73 g"
same,"Body weight, M±SEM","male rats, 300 mg/kg intragastric, experiment day 7","256,7±4,65 g"
same,"Body weight, M±SEM","male rats, 300 mg/kg intragastric, experiment day 15","280,8±8,21 g"
same,Changes Appearance,[6],no
same,Changes Behavior,[6],no
same,Changes Body Weight,[6],no
same,Changes Feed Intake,[6],no
same,Changes Organ Histology,[6],yes
same,Changes Organ Weight,[6],no
same,Changes Water Intake,[6],no
same,"Relative organ weight, Adrenal glands",[6],"0,028±0,0017 % of body weight"
same,"Relative organ weight, Brain",[6],"0,77±0,013 % of body weight"
same,"Relative organ weight, Heart",[6],"0,50±0,013 % of body weight"
same,"Relative organ weight, Kidneys",[6],"0,94±0,031 % of body weight"
same,"Relative organ weight, Liver",[6],"4,69±0,216 % of body weight"
same,"Relative organ weight, Lungs with trachea",[6],"0,86±0,108 % of body weight"
same,"Relative organ weight, Spleen",[6],"0,32±0,036 % of body weight"
same,"Relative organ weight, Testes",[6],"1,28±0,033 % of body weight"
same,"Relative organ weight, Thymus",[6],"0,27±0,0191 % of body weight"
same,"Body weight, M±SEM","male rats, 600 mg/kg intragastric, experiment day 1","201,3±2,80 g"
same,"Body weight, M±SEM","male rats, 600 mg/kg intragastric, experiment day 2","222,2±2,63 g"
same,"Body weight, M±SEM","male rats, 600 mg/kg intragastric, experiment day 7","253,3±4,15 g"
same,"Body weight, M±SEM","male rats, 600 mg/kg intragastric, experiment day 15","274,3±6,51 g"
same,Changes Appearance,[7],no
same,Changes Behavior,[7],yes
same,Changes Body Weight,[7],no
same,Changes Feed Intake,[7],yes
same,Changes Organ Histology,[7],yes
same,Changes Organ Weight,[7],no
same,Changes Water Intake,[7],no
same,"Relative organ weight, Adrenal glands",[7],"0,027±0,0022 % of body weight"
same,"Relative organ weight, Brain",[7],"0,77±0,036 % of body weight"
same,"Relative organ weight, Heart",[7],"0,51±0,022 % of body weight"
same,"Relative organ weight, Kidneys",[7],"0,87±0,008 % of body weight"
same,"Relative organ weight, Liver",[7],"4,91±0,128 % of body weight"
same,"Relative organ weight, Lungs with trachea",[7],"1,00±0,096 % of body weight"
same,"Relative organ weight, Spleen",[7],"0,32±0,031 % of body weight"
same,"Relative organ weight, Testes",[7],"1,11±0,064 % of body weight"
same,"Relative organ weight, Thymus",[7],"0,278±0,0278 % of body weight"
same,"Body weight, M±SEM","male rats, 1000 mg/kg intragastric, experiment day 1","191,0±5,79 g"
same,"Body weight, M±SEM","male rats, 1000 mg/kg intragastric, experiment day 2","206,5±6,61 g"
same,"Body weight, M±SEM","male rats, 1000 mg/kg intragastric, experiment day 7","231,8±12,48 g"
same,"Body weight, M±SEM","male rats, 1000 mg/kg intragastric, experiment day 15","273,0±11,56 g"
same,Changes Appearance,[8],yes
same,Changes Behavior,[8],yes
same,Changes Body Weight,[8],no
same,Changes Feed Intake,[8],yes
same,Changes Organ Histology,[8],yes
same,Changes Organ Weight,[8],no
same,Changes Water Intake,[8],no
same,"Relative organ weight, Adrenal glands",[8],"0,026±0,0014 % of body weight"
same,"Relative organ weight, Brain",[8],"0,78±0,024 % of body weight"
same,"Relative organ weight, Heart",[8],"0,48±0,046 % of body weight"
same,"Relative organ weight, Kidneys",[8],"0,90±0,034 % of body weight"
same,"Relative organ weight, Liver",[8],"4,08±0,252 % of body weight"
same,"Relative organ weight, Lungs with trachea",[8],"0,75±0,037 % of body weight"
same,"Relative organ weight, Spleen",[8],"0,28±0,018 % of body weight"
same,"Relative organ weight, Testes",[8],"1,2±0,120 % of body weight"
same,"Relative organ weight, Thymus",[8],"0,20±0,0116 % of body weight"
same,"Body weight, M±SEM","male rats, 2000 mg/kg intragastric, experiment day 1","196,0±1,61 g"
same,"Body weight, M±SEM","male rats, 2000 mg/kg intragastric, experiment day 2","212,7±3,91 g"
same,"Body weight, M±SEM","male rats, 2000 mg/kg intragastric, experiment day 7","236,0±1,53 g"
same,"Body weight, M±SEM","male rats, 2000 mg/kg intragastric, experiment day 15","259,7±3,18 g"
same,number of animals that died,male rats,4 animals
same,Deaths (Dead/ Total),"male, 300 mg/kg, 14 day",0/6
same,Deaths (Dead/ Total),"male, 600 mg/kg, 14 day",0/6
same,Deaths (Dead/ Total),"male, 1000 mg/kg, 14 day",1/6
same,Deaths (Dead/ Total),"male, 2000 mg/kg, 14 day",3/6
